This passage reports residual kinase activity results from PMC11167047 (Cell Death Discovery, 2024).

Common to all, as to test: kinome screen (33PanQinase)
Common to all, as to assay type: biochemical

One assay concerns the target T1, MAP3K7/MAP3K7IP1 (Homo sapiens, UniProt O43318).
T1 construct: purchased Reaction Biology Europe GmbH (formerly ProQinase)
T1 sequence (O43318 1-303 limits assumed): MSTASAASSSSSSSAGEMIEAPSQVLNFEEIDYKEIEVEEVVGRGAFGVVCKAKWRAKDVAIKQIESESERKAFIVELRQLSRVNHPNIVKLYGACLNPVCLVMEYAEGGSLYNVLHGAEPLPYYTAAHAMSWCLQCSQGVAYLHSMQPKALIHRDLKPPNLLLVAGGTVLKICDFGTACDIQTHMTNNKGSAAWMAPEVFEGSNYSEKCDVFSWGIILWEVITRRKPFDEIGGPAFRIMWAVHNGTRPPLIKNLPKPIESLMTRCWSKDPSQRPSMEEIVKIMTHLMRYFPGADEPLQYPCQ
T1 sequence (Q15750 437-504 partner limits assumed): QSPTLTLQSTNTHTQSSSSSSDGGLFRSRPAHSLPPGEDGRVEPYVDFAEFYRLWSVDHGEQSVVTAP
Here is the method:
(§1) The Kinome Screening was performed by Reaction Biology Europe GmbH (http://reactionbiology.com; Freiburg i. Br., Germany).

A further assay addresses T2, INSRR (Homo sapiens, UniProt P14616).
T2 construct: purchased Reaction Biology Europe GmbH (formerly ProQinase)
How it is done:
as §1

A further assay has as its target T3, LRRK2 (Homo sapiens, UniProt Q5S007).
T3 construct: purchased Reaction Biology Europe GmbH (formerly ProQinase)
How it is done:
as §1

A further assay concerns the target T4, CDK9/CycT1 (Homo sapiens, UniProt P50750).
T4 construct: purchased Reaction Biology Europe GmbH (formerly ProQinase)
Here is the method: as §1

The target in another assay is T5, BRK (Homo sapiens, UniProt Q13882).
T5 construct: purchased Reaction Biology Europe GmbH (formerly ProQinase)
How it is done: as §1

For another assay, the target named is T6, PKMzeta (Homo sapiens, UniProt Q05513).
T6 construct: PKMzeta; purchased Reaction Biology Europe GmbH (formerly ProQinase)
T6 sequence (Q05513 184-592 limits assumed): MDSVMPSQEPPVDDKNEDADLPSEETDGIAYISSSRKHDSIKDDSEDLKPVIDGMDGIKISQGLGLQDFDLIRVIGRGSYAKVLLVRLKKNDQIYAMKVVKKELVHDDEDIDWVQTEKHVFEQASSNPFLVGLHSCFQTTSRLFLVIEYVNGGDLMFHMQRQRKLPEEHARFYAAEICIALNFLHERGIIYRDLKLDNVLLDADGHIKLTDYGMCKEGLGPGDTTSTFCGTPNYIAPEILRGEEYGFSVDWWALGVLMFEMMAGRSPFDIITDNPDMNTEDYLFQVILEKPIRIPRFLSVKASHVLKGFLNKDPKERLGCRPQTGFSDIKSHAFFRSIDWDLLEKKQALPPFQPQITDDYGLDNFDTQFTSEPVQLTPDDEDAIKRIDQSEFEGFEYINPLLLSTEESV
Here is the method:
as §1

For another assay, the target named is T7, CDK3/CycC (Homo sapiens, UniProt Q00526).
T7 construct: purchased Reaction Biology Europe GmbH (formerly ProQinase)
How it is done:
as §1

Another assay concerns the target T8, MKK4 (Homo sapiens, UniProt P45985).
T8 construct: purchased Reaction Biology Europe GmbH (formerly ProQinase)
T8 sequence (P45985 1-399): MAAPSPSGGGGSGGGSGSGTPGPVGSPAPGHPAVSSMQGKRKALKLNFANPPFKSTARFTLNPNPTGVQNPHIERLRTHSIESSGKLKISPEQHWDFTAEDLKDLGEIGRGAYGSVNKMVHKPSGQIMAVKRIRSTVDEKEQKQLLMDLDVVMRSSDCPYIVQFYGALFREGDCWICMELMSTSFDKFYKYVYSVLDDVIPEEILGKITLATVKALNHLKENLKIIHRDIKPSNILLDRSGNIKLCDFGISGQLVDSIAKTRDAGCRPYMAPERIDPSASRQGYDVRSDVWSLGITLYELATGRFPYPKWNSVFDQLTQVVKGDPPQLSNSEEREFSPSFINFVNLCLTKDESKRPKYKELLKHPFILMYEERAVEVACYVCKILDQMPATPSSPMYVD
Here is the method: as §1

Another assay deals with T9, TYK2 (Homo sapiens, UniProt P29597).
T9 construct: purchased Reaction Biology Europe GmbH (formerly ProQinase)
How it is done:
as §1

The target of a further assay is T10, FGFR1 (Homo sapiens, UniProt P11362).
T10 construct: purchased Reaction Biology Europe GmbH (formerly ProQinase)
Here is the method:
as §1

For the next assay, the target named is T11, TSK2 (Homo sapiens, UniProt Q96PF2).
T11 construct: purchased Reaction Biology Europe GmbH (formerly ProQinase)
T11 sequence (Q96PF2 1-358): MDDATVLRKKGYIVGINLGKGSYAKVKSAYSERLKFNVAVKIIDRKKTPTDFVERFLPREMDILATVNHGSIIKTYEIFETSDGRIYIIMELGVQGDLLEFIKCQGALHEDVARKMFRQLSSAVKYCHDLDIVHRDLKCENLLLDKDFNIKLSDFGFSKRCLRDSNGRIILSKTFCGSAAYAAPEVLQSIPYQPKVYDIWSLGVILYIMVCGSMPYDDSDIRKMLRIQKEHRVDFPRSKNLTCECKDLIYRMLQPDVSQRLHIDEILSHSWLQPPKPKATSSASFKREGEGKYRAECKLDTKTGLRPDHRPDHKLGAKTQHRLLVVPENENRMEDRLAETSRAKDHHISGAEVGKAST
Here is the method:
as §1

Molecules are shown by their SMILES.

T4 sequence (P50750 whole entry): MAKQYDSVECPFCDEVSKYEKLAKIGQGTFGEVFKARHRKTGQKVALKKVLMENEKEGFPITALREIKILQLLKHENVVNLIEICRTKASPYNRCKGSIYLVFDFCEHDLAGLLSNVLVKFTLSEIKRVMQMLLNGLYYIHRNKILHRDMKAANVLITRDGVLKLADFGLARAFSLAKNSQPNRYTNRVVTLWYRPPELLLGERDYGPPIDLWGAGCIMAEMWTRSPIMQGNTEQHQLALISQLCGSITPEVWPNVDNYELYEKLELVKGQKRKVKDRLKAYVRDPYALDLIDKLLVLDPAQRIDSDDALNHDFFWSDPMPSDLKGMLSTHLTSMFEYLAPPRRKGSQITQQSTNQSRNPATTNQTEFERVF
T4 sequence (O60563 whole entry partner): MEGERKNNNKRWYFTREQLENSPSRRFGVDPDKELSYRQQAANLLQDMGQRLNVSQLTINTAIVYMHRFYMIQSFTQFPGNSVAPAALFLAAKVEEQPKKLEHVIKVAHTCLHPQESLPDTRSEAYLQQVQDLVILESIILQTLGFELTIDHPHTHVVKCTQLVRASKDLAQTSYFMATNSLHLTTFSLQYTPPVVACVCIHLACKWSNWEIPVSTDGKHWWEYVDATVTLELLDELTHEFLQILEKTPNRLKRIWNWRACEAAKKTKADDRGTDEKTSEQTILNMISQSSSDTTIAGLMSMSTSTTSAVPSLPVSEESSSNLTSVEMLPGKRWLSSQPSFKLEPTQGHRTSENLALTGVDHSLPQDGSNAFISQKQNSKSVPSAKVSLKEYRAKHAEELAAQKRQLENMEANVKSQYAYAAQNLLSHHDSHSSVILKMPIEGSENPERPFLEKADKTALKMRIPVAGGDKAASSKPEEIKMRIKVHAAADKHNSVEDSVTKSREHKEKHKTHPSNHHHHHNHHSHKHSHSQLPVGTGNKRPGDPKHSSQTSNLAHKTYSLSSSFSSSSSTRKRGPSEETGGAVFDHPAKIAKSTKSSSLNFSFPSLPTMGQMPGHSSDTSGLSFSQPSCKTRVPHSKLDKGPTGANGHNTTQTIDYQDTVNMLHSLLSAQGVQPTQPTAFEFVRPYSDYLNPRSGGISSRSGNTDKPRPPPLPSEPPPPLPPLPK
T9 sequence (P29597 whole entry): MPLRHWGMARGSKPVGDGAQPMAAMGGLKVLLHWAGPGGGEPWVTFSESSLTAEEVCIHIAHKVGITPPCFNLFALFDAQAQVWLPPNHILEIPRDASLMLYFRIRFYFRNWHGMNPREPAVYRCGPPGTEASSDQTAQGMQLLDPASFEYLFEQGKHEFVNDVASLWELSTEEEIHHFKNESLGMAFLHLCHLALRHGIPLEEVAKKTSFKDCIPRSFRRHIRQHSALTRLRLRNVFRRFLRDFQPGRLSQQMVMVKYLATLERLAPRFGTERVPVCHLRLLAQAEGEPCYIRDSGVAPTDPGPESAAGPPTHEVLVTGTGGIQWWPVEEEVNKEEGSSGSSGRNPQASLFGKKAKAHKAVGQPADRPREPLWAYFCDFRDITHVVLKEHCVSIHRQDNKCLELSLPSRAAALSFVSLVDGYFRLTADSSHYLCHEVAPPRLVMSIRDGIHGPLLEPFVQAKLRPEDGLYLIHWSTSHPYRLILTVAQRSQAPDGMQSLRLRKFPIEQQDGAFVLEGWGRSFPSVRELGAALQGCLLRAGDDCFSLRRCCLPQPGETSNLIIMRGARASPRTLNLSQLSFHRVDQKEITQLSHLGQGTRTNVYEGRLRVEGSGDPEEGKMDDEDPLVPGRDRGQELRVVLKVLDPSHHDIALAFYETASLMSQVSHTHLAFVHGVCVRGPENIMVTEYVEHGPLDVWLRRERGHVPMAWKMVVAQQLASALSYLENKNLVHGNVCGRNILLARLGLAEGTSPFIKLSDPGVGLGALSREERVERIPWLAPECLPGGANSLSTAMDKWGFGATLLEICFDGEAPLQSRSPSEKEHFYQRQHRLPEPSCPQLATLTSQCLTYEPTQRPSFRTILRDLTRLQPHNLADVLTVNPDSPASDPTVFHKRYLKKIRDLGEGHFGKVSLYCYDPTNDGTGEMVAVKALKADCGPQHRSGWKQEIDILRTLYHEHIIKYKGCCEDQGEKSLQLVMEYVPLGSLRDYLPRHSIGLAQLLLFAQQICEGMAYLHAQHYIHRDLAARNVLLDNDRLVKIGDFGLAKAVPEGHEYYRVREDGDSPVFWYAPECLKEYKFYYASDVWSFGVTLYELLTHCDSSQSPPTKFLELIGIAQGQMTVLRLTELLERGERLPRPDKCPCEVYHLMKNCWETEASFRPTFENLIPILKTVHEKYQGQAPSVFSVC
T5 sequence (Q13882 whole entry): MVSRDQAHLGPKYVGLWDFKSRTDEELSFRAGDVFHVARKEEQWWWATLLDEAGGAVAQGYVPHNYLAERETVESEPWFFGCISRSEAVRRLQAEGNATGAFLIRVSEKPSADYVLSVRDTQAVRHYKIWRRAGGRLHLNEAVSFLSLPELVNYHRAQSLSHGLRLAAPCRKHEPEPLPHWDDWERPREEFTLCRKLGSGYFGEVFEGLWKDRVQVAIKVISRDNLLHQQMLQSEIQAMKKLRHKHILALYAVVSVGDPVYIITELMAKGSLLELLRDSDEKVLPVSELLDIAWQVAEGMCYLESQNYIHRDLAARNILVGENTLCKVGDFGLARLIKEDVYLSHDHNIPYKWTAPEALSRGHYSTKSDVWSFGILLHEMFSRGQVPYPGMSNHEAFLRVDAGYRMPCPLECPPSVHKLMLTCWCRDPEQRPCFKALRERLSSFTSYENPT
T10 sequence (P11362 22-822): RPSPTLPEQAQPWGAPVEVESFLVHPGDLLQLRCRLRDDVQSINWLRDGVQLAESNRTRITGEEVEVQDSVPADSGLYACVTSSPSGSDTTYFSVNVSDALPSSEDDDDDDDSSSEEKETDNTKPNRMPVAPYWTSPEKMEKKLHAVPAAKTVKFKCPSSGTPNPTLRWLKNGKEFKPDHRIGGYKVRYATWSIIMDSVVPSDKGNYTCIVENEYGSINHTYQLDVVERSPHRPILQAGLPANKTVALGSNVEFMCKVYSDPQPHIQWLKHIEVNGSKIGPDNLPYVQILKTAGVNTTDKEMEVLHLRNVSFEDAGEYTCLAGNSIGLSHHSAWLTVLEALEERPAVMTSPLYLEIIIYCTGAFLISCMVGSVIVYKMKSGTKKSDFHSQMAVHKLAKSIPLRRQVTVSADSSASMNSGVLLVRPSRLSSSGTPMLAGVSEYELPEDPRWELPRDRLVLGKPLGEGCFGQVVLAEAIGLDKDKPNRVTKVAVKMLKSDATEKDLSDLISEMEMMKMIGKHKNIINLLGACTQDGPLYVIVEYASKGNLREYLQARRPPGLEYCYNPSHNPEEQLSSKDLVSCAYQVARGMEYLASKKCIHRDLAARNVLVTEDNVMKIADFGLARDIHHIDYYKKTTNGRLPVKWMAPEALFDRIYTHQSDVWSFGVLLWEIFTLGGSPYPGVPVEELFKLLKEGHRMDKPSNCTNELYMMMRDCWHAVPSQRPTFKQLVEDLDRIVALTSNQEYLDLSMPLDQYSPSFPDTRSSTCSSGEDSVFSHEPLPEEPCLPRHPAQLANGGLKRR
T2 sequence (P14616 27-1297): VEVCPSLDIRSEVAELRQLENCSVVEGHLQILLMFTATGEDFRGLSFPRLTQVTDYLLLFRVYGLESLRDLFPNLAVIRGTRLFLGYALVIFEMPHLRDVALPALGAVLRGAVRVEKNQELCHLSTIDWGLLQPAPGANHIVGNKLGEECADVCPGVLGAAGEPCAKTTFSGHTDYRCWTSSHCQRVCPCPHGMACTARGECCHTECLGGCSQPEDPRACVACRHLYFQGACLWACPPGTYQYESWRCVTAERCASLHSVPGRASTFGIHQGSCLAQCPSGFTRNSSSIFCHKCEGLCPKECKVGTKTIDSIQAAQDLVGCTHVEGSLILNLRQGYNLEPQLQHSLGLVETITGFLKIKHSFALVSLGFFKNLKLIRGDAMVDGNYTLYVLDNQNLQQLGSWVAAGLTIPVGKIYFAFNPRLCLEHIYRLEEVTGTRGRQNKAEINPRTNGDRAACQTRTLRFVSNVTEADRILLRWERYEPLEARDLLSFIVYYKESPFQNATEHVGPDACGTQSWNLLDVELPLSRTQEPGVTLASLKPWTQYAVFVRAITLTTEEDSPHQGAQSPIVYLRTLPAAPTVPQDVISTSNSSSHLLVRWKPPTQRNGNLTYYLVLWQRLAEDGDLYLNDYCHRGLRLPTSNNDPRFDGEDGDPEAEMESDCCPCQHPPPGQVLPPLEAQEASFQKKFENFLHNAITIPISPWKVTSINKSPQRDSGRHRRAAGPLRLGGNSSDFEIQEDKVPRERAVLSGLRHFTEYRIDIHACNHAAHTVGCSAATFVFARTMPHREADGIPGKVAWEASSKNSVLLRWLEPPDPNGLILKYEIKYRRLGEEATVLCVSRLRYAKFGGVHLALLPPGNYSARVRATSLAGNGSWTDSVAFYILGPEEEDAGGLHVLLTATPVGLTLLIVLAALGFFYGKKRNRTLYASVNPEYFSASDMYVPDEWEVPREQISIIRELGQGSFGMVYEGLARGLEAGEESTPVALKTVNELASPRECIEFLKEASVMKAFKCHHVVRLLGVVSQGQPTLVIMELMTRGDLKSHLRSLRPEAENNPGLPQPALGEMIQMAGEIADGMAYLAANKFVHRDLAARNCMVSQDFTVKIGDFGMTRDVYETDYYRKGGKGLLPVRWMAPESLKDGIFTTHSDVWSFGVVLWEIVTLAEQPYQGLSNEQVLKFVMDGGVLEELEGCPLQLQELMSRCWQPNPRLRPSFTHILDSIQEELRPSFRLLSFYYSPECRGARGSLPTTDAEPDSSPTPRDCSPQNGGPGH

`COc1ccnc2[nH]cc(-c3cc(N)nc(N)c3)c12` [meriolin 16]: the residual kinase activity on MAP3K7/MAP3K7IP1 (0.03 µM) was 54 % of control; at MAP3K7/MAP3K7IP1 (0.3 µM), 17 % of control; on INSRR (0.03 µM) it was 97 % of control; at INSRR (0.3 µM), 96 % of control; on LRRK2 (0.03 µM), 50 % of control; on LRRK2 (0.3 µM), 8 % of control. Also, the residual kinase activity is listed as 13 % of control on CDK9/CycT1 (0.03 µM); 2 % of control on CDK9/CycT1 (0.3 µM); 91 % of control on BRK (0.03 µM); 85 % of control on BRK (0.3 µM); 97 % of control at PKMzeta (0.03 µM); 90 % of control on PKMzeta (0.3 µM). Also, the residual kinase activity is on record as 71 % of control at CDK3/CycC (0.03 µM); 20 % of control on CDK3/CycC (0.3 µM); 86 % of control on MKK4 (0.03 µM); 66 % of control on MKK4 (0.3 µM); 105 % of control on TYK2 (0.03 µM); 68 % of control on TYK2 (0.3 µM). Also, the residual kinase activity at FGFR1 (0.03 µM) is recorded as 103 % of control; on FGFR1 (0.3 µM), 91 % of control; on TSK2 (0.03 µM), 107 % of control; at TSK2 (0.3 µM), 92 % of control.

On to `c1ccc(CNc2cc(-c3c[nH]c4ncccc34)ccn2)cc1` [meriolin 36], for which the residual kinase activity at MAP3K7/MAP3K7IP1 (0.3 µM) was 15 % of control; at MAP3K7/MAP3K7IP1 (3 µM) it was 5 % of control; on INSRR (0.3 µM), 85 % of control; at INSRR (3 µM), 39 % of control; on LRRK2 (0.3 µM) it was 1 % of control; on LRRK2 (3 µM) it was 1 % of control. Also, the residual kinase activity at CDK9/CycT1 (0.3 µM) was 1 % of control; on CDK9/CycT1 (3 µM), 0 % of control; at BRK (0.3 µM), 66 % of control; at BRK (3 µM), 18 % of control; at PKMzeta (0.3 µM) it was 89 % of control; on PKMzeta (3 µM), 68 % of control. The residual kinase activity is on record as 9 % of control at CDK3/CycC (0.3 µM); 3 % of control on CDK3/CycC (3 µM); 45 % of control at MKK4 (0.3 µM); 9 % of control on MKK4 (3 µM); 6 % of control at TYK2 (0.3 µM); 1 % of control at TYK2 (3 µM). In addition, the residual kinase activity on FGFR1 (0.3 µM) is 56 % of control; at FGFR1 (3 µM) it was 16 % of control; at TSK2 (0.3 µM) it was 103 % of control; on TSK2 (3 µM) it was 94 % of control.
